Reference: patent US20140348966A1, “GARCINIA BUCHANANII BAKER COMPOUNDS, COMPOSITIONS AND RELATED METHODS” (priority 2011, published 2014)
Several values for one entry are separate records, joined by “and”; a condition that tells them apart may be missing. Equal entries are not always repeated. Structures can show the parent of a compound that is named as a salt.

Legend:
[1] = oxygen radical absorbance capacity (ORAC) assay; assay type: biochemical; conditions: isolated and reference compounds
Experimental: ORAC assay was carried out according to the method of Ou, G. and colleagues (1993) with some modifications. Trolox and FL were used as a standard and a fluorescent probe respectively. Free radicals were produced by AAPH to oxidize FL. Different dilutions of Trolox ([…]) and appropriate dilutions of tested sample were prepared with phosphate buffer (10 mM, pH 7.4). Trolox dilution ([…]) or sample solution were pipetted into a well of 96-well black microplate (VWR) and then FL (150 mL, 10 nM) was added. The reaction mixture was incubated at 37° C. for 30 min Afterward s, fluorescence was measured every 90 sec at the excitation of 485 nm and the emission of 520 nm using FLUOstar OPTIMA. After 3 cycles, AAPH ([…], 240 mM) was added quickly, and then the measurement was resumed and continued up to 90 min (60 cycles in total). The background signal was determined using the first 3 cycles. The ORAC values were calculated according to the method of Ou, G. and colleagues (1993) and expressed as Trolox equivalent (mmol TE/mmol). After freeze-drying in triplicate, MPLC fractions M1-M8 were analyzed in natural concentrations.

[2] = hydrogen peroxide scavenging assay; assay type: biochemical; conditions: isolated and reference compounds; read-out: H2O2 assay EC50
Experimental: Hydrogen peroxide scavenging assay was performed in accordance with the method of Ichikawa, M. and colleagues (2002). Sample solutions at appropriate concentration were prepared using phosphate buffer (100 mM, pH 6.0). Sample solution ([…]), phosphate buffer (30 mL, 100 mM, pH 6.0), and hydrogen peroxide solution (10 mL, 500 mM) were mixed in 96-well clear microplate (VWR, Ismaning, Germany). Then peroxidase (40 mL, 150 U/mL) and ABTS (40 mL, 0.1%) were added. The microplate was incubated at 37° C. for 15 min. The absorbance (A) of each well was measured at 414 nm with FLUOstar OPTIMA (BMG LABTECH, Offenburg, Germany). […] After freeze-drying three times 1 MPLC fractions M1-M8 were analyzed in natural concentrations.
E=[(A−Ablank)control−(A−Ablank)test]/(A−Ablank)control·100

guinea pig distal colon = experiment: fecal pellet propulsion motility assay in isolated distal colon (GIMM)
Experimental: Gastrointestinal Motility Assays: Segments (˜10 cm long) of distal colon were pinned on either end in a Sylgard-lined 50 mL organ bath, continuously perfused with oxygenated Krebs solution (rate: 10 mL min^−1) and maintained at temperatures between 36 and 37° C. Tissues were initially allowed to equilibrate for 30 mins in re-circulating Krebs solution. Colonic motility was studied using the Gastronintestinal Motility Monitoring system (GIMM; Med-Associates Inc., Saint Albans, Vt., USA), which included a digital video camera (Catamount Research and Development Inc, St Albans, Vt., USA) to film fecal pellet propulsion. Trials were separated by 5-min recovery periods between successive pellet runs. The GIMM system software calculated velocities by tracking pellets as they traversed colon segments. After initial equilibration, five pellet propulsion trials in vehicle solution were obtained to determine the basal velocity for each tissue preparation. To reduce variations between runs and experiments, the values obtained were used to generate a normalized basal velocity by dividing the values of the 4th-5th runs by the value of the 1st-2nd runs. Garcinia buchananii stem bark extract and test compounds dissolved in 100 mL of Krebs solution were superfused either into the organ bath or into the lumen of the colon using polyethylene tubing [PE 205; outside diameter 9.5 mm (BD-Worldwide, Sparks, Md., USA)]. The effects of extract and test compounds were evaluated by obtaining velocities of four trials taken at 5-min intervals (5-20 min) Normalized velocity data for these treatments were obtained by dividing the test velocities acquired by the average velocity of the five pellet propulsion runs performed in vehicle solution (runs 1-5, above). Normalized data became ratios without units, and were presented as a percent velocity of basal activity for each tissue. Velocities of pellet propulsion were also studied during washout of tissue with Krebs solution (after extract or test compound application) for 20 min
A segment (˜10-12 cm long) of distal colon was pinned on either end in a Sylgard-lined 50 mL organ bath being continuously perfused with oxygenated Krebs solution (rate: 10 mL min^−1) and maintained at temperatures between 36-37° C. Nail-polish-coated guinea-pig pellets similar in shape and size to the “native” colonic fecal pellets were used to determine propulsive velocities using the Gastrointestinal Motility Monitoring system (Med-Associates Inc., Saint Albans, Vt., USA) for filming pellet propulsion as described by Hoffman and others (2010). Velocity was calculated based on the time required for pellets to traverse 5-6 cm of the central colon segment ending 1 cm from the aboral end. Data collection started after 30 minutes of equilibration. A five-minute interval was used to allow equilibration of motor activity between successive pellet runs. Baseline velocities were measured for 20 minutes.
In intraluminal studies, the aqueous extract was prepared by suspending 2 g of G. buchananii bark powder in 100 mL Krebs, whereas 1 g G. buchananii bark powder prepared in the same manner was used for bath (serosal) applications. The extract-Krebs mixture was continuously stirred for 30 minutes and filtered using analytical filter paper (Schleicher and Schuell Blue Ribbon filter paper 589/3; 0.2 μm retention). Garcinia buchananii extract and test compounds were delivered to isolated colons in Krebs solution, and evaluated for effects on pellet propulsion during 20-25 minute time intervals. Intraluminal drug deliveries (350 μL min^−1 Krebs solution) were performed using polyethylene tubing (PE 205; outside diameter 9.5 mm) inserted ˜1.5 cm into the oral end of the segments. In bath deliveries, G. buchananii extract and test compounds were superfused directly into the organ bath. Studies involving PTLC fractions were performed using the organ bath delivery method only.

[3] = test system: Wistar rats with high-lactose diet-induced diarrhea; experiment: high-lactose diet (HLD) induced diarrhea in rats; assay type: in vivo
Experimental: A high-lactose (35%) diet induced diarrhea in Wistar rats, which were then treated with either G. buchananii bark extract (0.1, 0.5, 1.0 and 5.0 g bark powder) or its anti-motility fractions isolated using preparative thin layer chromatography; termed PTLC1 (15 mg) and PTLC5 (3.8 mg) or loperamide (8.4 mg), each dissolved in 1 liter of tap water. Numerous parameters were measured in each condition including consistency, fluid and mucus content of feces, body weight, water and food consumption, urine production and bloating.
The study was conducted in accordance with the regulations of the University of Idaho Institutional Animal Care and Use Committee (IACUC). Sixty two, 10 week old Wistar rats were obtained from Harlan Animal Research Laboratory (Hayward Calif., USA). Rats were individually caged (23-24° C.; 12:12 h light-dark cycle) and quarantined for one week. Rats were fed a standard chow diet ad libitum (Animal Specialties, Hubbard, Oreg., USA) and had free access to water for four days prior to the inducement of diarrhea. A high-lactose diet (HLD) containing 35% lactose in place of starch (3.004 Kcal; Purina Mills; Richmond, Ind., USA) was fed to 52 rats. Diarrhea was induced within 24-48 hours after consuming the diet. Rats were monitored for changes in consistency of pellets and stool mass, fecal fluid and urine production (mass; g and volume; ml). Rats were considered diarrheic if they produced watery stools, soft, yellowish stools compared to normal, pliable, soft, well-formed pellets as previously described by other researchers.
Four days after introducing rats to a HLD, diarrheic rats were treated using varying doses of G. buchananii extract, its anti-motility fractions isolated using preparative thin layer chromatoghraphy (PTLC1 & PTLC5) and loperamide for standard comparison. Rats were maintained on a HLD during the entire treatment period.
Garcinia buchananii bark powder was prepared from stem barks collected from trees in their natural habitat in Karagwe, Tanzania, as described previously by Balemba, OB and colleagues, 2010. A sample can be found at the University of Idaho Stillinger herbarium (voucher #159918). 0.1 g, 0.5 g, 1.0 g and 5.0 g of G. buchananii bark powder were each suspended in 1 L of tap water, stirred for 30 minutes and filtered. The filtrate was then immediately used to treat rats against lactose-induced diarrhea.
Twenty nine rats on a HLD were randomly assigned and treated with varying doses of G. buchananii extract (0.1 g, 0.5 g, 1 g, and 5 g extract; n=6-10 rats per group). Eight rats were treated with PTLC1 or PTLC5 (each n=4) at a dose of 15 mg and 3.8 mg in 100 mL tap water, respectively. For control treatments, seven rats were treated with loperamide (8.4 mg/L tap water), eight rats were left untreated (HLD control) and ten rats received control standard chow diets (SD). Rats were treated for a total of four days, receiving freshly made drugs every two days.
We studied the impact of a HLD and all the treatments on the consistency, form and appearance of feces. Body weight, food and water intake were measured every two days for the entire period. Diarrheic rats treated with G. buchananii (0.1 g/l, 1.0 g/l) and loperamide were used to study fecal fluid content, stool mass and urine production compared with untreated rats on a HLD and SD control diets (n=3-5). To achieve this, pellets/stools and urine were allowed to drop on non-leaking, polyester plastic mats spread in metal trays placed beneath wired cages housing rats. Pellets/stools and urine were collected every three hours, for 24 hours, for a 12-day period. Disposable polyethylene transfer pipettes (5.5 mL) were used to collect urine. Pellets/stools were collected by using custom-made pieces of Inkjet transparencies. The samples were stored in disposable, polypropylene containers (100 mL) tightly capped to avoid loss of moisture due to vaporization. […]

[4] = bath (serosal) application, 20 min, extract 1 g/100 mL Krebs, PTLC1 15 mg, PTLC5 3.8 mg/100 mL, RS-56812 50 nmol/L, cisapride 100 nmol/L, CJ-033466 300 nmol/L, granisetron 1 μmol/L, ondansetron 0.5 μmol/L, GR-113808 5 μmol/L
[5] = intraluminal delivery, 5 min, extract 2 g bark powder/100 mL Krebs, 5-HT 0.5 μmol/L, RS-56812 50 nmol/L, cisapride 100 nmol/L, CJ-033466 300 nmol/L, GR-113808 5 μM
[6] = intraluminal delivery, 15 min, extract 2 g bark powder/100 mL Krebs, drug concentrations as at 5 min
[7] = intraluminal delivery, 20 min, extract 2 g bark powder/100 mL Krebs, drug concentrations as at 5 min
[8] = HLD rats, PTLC1 15 mg, PTLC5 3.8 mg in 100 mL tap water, loperamide 8.4 mg/L, after 24 hrs to the 4th day
[9] = HLD rats, loperamide 8.4 mg/L, PTLC1 15 mg/100 mL, PTLC5 3.8 mg/100 mL

Row | SMILES | pellet propulsion, percent of normalized baseline pellet velocity (guinea pig distal colon; [4]) | pellet propulsion, percent of normalized baseline pellet velocity (guinea pig distal colon; [5]) [%] | pellet propulsion, percent of normalized baseline pellet velocity (guinea pig distal colon; [6]) [%] | pellet propulsion, percent of normalized baseline pellet velocity (guinea pig distal colon; [7]) [%] | further results
1 | O=C1CC(c2ccc(O)cc2)Oc2cc(O)cc(O)c21 (racemic) [(±)-naringenin] |  |  |  |  | ORAC assay [1]: 3.96 μmol TE/μmol; EC50 [2]: 8.6 µM
2 | Cc1cn2c(N)c(Cl)cc(C(=O)NCC3CCN(CC(C)C)CC3)c2n1 [CJ-033466] | 102.8±6.5% | 132.7 ± 7.1 | 112.1 ± 6.7 | 116.6 ± 5.6 | 
3 | NCCc1c[nH]c2ccc(O)cc12 [Compound 5-HT, Serotonin hydrochloride] |  | 118.3 ± 16.2 | 117.6 ± 13.5 | 114.3 ± 11.9 | 
4 | Cn1cc(C(=O)OCC2CCN(CCNS(C)(=O)=O)CC2)c2ccccc21 [GR-113808] | did not alter pellet propulsion | 109.3 ± 6.1 | 93.2 ± 3.6 | 91.7 ± 3.1 | inhibition of pellet propulsion (guinea pig distal colon; intraluminal, after 20 minutes, extract 2 g/100 mL Krebs, granisetron 2 μM, GR-113808 5 μM): 10%
5 | Cn1cc(C(=O)C(=O)NC2CN3CCC2CC3)c2ccccc21 (stereo not shown) [RS-56812] | 103.3±4.7% | 119.7 ± 5.2 | 119.6 ± 5.4 | 126.7 ± 9.2 | 
6 | COc1cc(N)c(Cl)cc1C(=O)NC1CCN(CCCOc2ccc(F)cc2)CC1OC (stereo not shown) [cisapride, Cisapride] | 85.0±5.5% and 85.0±5.9% | 115.6 ± 4.9 | 109.6 ± 9.3 | 122.0 ± 8.2 | inhibition of pellet propulsion (guinea pig distal colon; serosal (bath) application, 20 min, extract 1 g, PTLC1 15 mg, PTLC5 3.8 mg per 100 mL Krebs, cisapride 100 nmol/L, RS-56812 50 nmol/L): 15%
7 | CN1C2CCCC1CC(NC(=O)c1nn(C)c3ccccc13)C2.Cl (stereo not shown) [granisetron, granisetron hydrochloride] | 101.4±7.0% | 99.3 ± 4.2 | 92.4 ± 1.4 | 86.5 ± 3.6 | 
8 | CN(C)C(=O)C(CCN1CCC(O)(c2ccc(Cl)cc2)CC1)(c1ccccc1)c1ccccc1 [loperamide] |  |  |  |  | intestinal bloating / cecum distension ([3]; HLD rats, all doses): reduced cecum distension; cecum maximum diameter ([3]; HLD rats, loperamide 8.4 mg/L): 2.0+/−0.2 cm; fecal fluid content ([3]; HLD rats, loperamide 8.4 mg/L): 43.8±6.5%; Form of stool: Hardened normal pellets [3, 8]: ++++++; Form of stool: Loose stool with structural form of pellet [3, 8]: −; Form of stool: Loose stools + mucous (non-structural stool) [3, 8]: −; Form of stool: Soft formed pellets [3, 8]: −; Form of stool: Watery diarrhea + mucous (incontinence or profuse) [3, 8]: −; body weight change [3, 9]: -1.33 ± 0.64 g; food consumption [3, 9]: 28.50 ± 3.58 g; water (fluid) consumption [3, 9]: 43.96 ± 7.66 mL; reversal of weight loss versus untreated HLD rats ([3]; loperamide 8.4 mg/L, not significant): 1.78 g
9 | Cc1nccn1CC1CCc2c(c3ccccc3n2C)C1=O (stereo not shown) [ondansetron, ondansetron hydrochloride] | 111.3±9.8% |  |  |  | 
